Measurements from patent publication US20110086759A1, “CHEMICAL COMPOUNDS” (SYNGENTA CROP PROTECTION, INC., priority 2007, published 2011).

Experiments:
Type in all cases: in vivo
[1] = system: Alopecurus myosuroides (ALOMY); assay: Pre-emergence biological efficacy, glasshouse pot test; settings: 312 h
How it was run: (§1)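 Test compound, formulated in acetone/water (50:50) containing 0.5% Tween 20 and diluted into an aqueous spray, was applied at 1000 or 250 g/ha to pots sown one day earlier. Injury was rated after 13 days, 100 meaning total damage.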

[2] = system: Amaranthus retoflexus (AMARE); assay: as above; settings: Amaranthus retroflexus, 312 h
How it was run: as §1

[3] = system: Echinochloa crus-galli (ECHCG); assay: as above; settings: 312 h
How it was run: as §1

[4] = system: Ipomea hederaceae (IPOHE); assay: as above; settings: Ipomoea hederacea, 312 h
How it was run: as §1

Setaria faberi (SETFA) [5] = assay: as above; settings: 312 h
How it was run: as §1

Solanum nigrum (SOLNI) [6] = assay: as above; settings: 312 h
How it was run: as §1

[7] = system: Alopecurus myosuroides (ALOMY); assay: Post-emergence biological efficacy, glasshouse pot test; settings: 312 h
How it was run: (§2)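 Plants were sown in standard soil and grown 8 days in a glasshouse (24/16° C. day/night, 14 hours light, 65% humidity), then sprayed post-emergence at 1000 or 250 g/ha from acetone/water (50:50) with 0.5% Tween 20. Damage was scored visually after 13 days (0 = none, 100 = total).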

[8] = system: Amaranthus retoflexus (AMARE); assay: as above; settings: Amaranthus retroflexus, 312 h
How it was run: as §2

[9] = system: Echinochloa crus-galli (ECHCG); assay: as above; settings: 312 h
How it was run: as §2

[10] = system: Ipomea hederaceae (IPOHE); assay: as above; settings: Ipomoea hederacea, 312 h
How it was run: as §2

Setaria faberi (SETFA) [11] = assay: as above; settings: 312 h
How it was run: as §2

Solanum nigrum (SOLNI) [12] = assay: as above; settings: 312 h
How it was run: as §2

[13] = pre-emergence, 1,000 g/ha, evaluated after 13 days (100=total damage; 0=no damage), read-out: Percentage damage ALOMY
[14] = pre-emergence, 1,000 g/ha, evaluated after 13 days (100=total damage; 0=no damage), read-out: Percentage damage AMARE
[15] = pre-emergence, 1,000 g/ha, evaluated after 13 days (100=total damage; 0=no damage), read-out: Percentage damage ECHCG
[16] = pre-emergence, 1,000 g/ha, evaluated after 13 days (100=total damage; 0=no damage), read-out: Percentage damage IPOHE
[17] = pre-emergence, 1,000 g/ha, evaluated after 13 days (100=total damage; 0=no damage), read-out: Percentage damage SETFA
[18] = pre-emergence, 1,000 g/ha, evaluated after 13 days (100=total damage; 0=no damage), read-out: Percentage damage SOLNI
[19] = post-emergence, 1,000 g/ha, evaluated after 13 days (100=total damage; 0=no damage), read-out: Percentage damage caused to weed species, ALOMY
[20] = post-emergence, 1,000 g/ha, evaluated after 13 days (100=total damage; 0=no damage), read-out: Percentage damage caused to weed species, AMARE
[21] = post-emergence, 1,000 g/ha, evaluated after 13 days (100=total damage; 0=no damage), read-out: Percentage damage caused to weed species, ECHCG
[22] = post-emergence, 1,000 g/ha, evaluated after 13 days (100=total damage; 0=no damage), read-out: Percentage damage caused to weed species, IPOHE
[23] = post-emergence, 1,000 g/ha, evaluated after 13 days (100=total damage; 0=no damage), read-out: Percentage damage caused to weed species, SETFA
[24] = post-emergence, 1,000 g/ha, evaluated after 13 days (100=total damage; 0=no damage), read-out: Percentage damage caused to weed species, SOLNI
[25] = pre-emergence, rate 1,000 g/ha, evaluated after 13 days (100=total damage to plant; 0=no damage), read-out: Percentage damage caused to weed species, ALOMY
[26] = pre-emergence, rate 1,000 g/ha, evaluated after 13 days (100=total damage to plant; 0=no damage), read-out: Percentage damage caused to weed species, AMARE
[27] = pre-emergence, rate 1,000 g/ha, evaluated after 13 days (100=total damage to plant; 0=no damage), read-out: Percentage damage caused to weed species, ECHCG
[28] = pre-emergence, rate 1,000 g/ha, evaluated after 13 days (100=total damage to plant; 0=no damage), read-out: Percentage damage caused to weed species, IPOHE
[29] = pre-emergence, rate 1,000 g/ha, evaluated after 13 days (100=total damage to plant; 0=no damage), read-out: Percentage damage caused to weed species, SETFA
[30] = pre-emergence, rate 1,000 g/ha, evaluated after 13 days (100=total damage to plant; 0=no damage), read-out: Percentage damage caused to weed species, SOLNI
[31] = Rate 1,000 g/ha, post-emergence spray, evaluated after 13 days (100=total damage to plant; 0=no damage to plant), read-out: Percentage damage caused to weed species, post-emergence, ALOMY
[32] = Rate 1,000 g/ha, post-emergence spray, evaluated after 13 days (100=total damage to plant; 0=no damage to plant), read-out: Percentage damage caused to weed species, post-emergence, AMARE
[33] = Rate 1,000 g/ha, post-emergence spray, evaluated after 13 days (100=total damage to plant; 0=no damage to plant), read-out: Percentage damage caused to weed species, post-emergence, ECHCG
[34] = Rate 1,000 g/ha, post-emergence spray, evaluated after 13 days (100=total damage to plant; 0=no damage to plant), read-out: Percentage damage caused to weed species, post-emergence, IPOHE
[35] = Rate 1,000 g/ha, post-emergence spray, evaluated after 13 days (100=total damage to plant; 0=no damage to plant), read-out: Percentage damage caused to weed species, post-emergence, SETFA
[36] = Rate 1,000 g/ha, post-emergence spray, evaluated after 13 days (100=total damage to plant; 0=no damage to plant), read-out: Percentage damage caused to weed species, post-emergence, SOLNI

Compound | pest or weed control at 1000 g/ha [1, 13] [%] | pest or weed control at 1000 g/ha [2, 14] [%] | pest or weed control at 1000 g/ha [3, 15] [%] | pest or weed control at 1000 g/ha [4, 16] [%] | pest or weed control at 1000 g/ha (Setaria faberi (SETFA) [5]; [17]) [%] | pest or weed control at 1000 g/ha (Solanum nigrum (SOLNI) [6]; [18]) [%] | pest or weed control at 1000 g/ha [7, 19] [%] | pest or weed control at 1000 g/ha [8, 20] [%] | pest or weed control at 1000 g/ha [9, 21] [%] | pest or weed control at 1000 g/ha [10, 22] [%] | pest or weed control at 1000 g/ha (Setaria faberi (SETFA) [11]; [23]) [%] | pest or weed control at 1000 g/ha (Solanum nigrum (SOLNI) [12]; [24]) [%] | pest or weed control at 1000 g/ha [1, 25] [%] | pest or weed control at 1000 g/ha [2, 26] [%] | pest or weed control at 1000 g/ha [3, 27] [%] | pest or weed control at 1000 g/ha [4, 28] [%] | pest or weed control at 1000 g/ha (Setaria faberi (SETFA) [5]; [29]) [%] | pest or weed control at 1000 g/ha (Solanum nigrum (SOLNI) [6]; [30]) [%] | pest or weed control at 1000 g/ha [7, 31] [%] | pest or weed control at 1000 g/ha [8, 32] [%] | other results
CCOC(=O)[C@H](CSc1ccccc1)Nc1nc(C2CC2)nc(C(=O)OC)c1Cl [4-292 (R), 5-Chloro-2-cyclopropyl-4-[(1R)-1-ethoxycarbonyl-2-phenylthio-ethylamino]-6-methoxycarbonyl-pyrimidine] | 20 | 100 | 20 | 100 | 10 | 80 | 20 | 100 | 30 | 60 | 50 | 70 | – | – | – | – | – | – | – | – | –
COC(=O)c1nc(C2CC2)nc(N(Cc2ccc(C)o2)C(C)C)c1Cl [Compound 146-135, 5-Chloro-2-cyclopropyl-6-methoxycarbonyl-4-[N-(5-methylfuran-2-ylmethyl)-N-prop-2-yl-amino]-pyrimidine] | – | – | – | – | – | – | – | – | – | – | – | – | 40 | 100 | 10 | 100 | 40 | 100 | 40 | 100 | pest or weed control at 1000 g/ha [9, 33]: 80%; pest or weed control at 1000 g/ha [10, 34]: 100%; pest or weed control at 1000 g/ha (Setaria faberi (SETFA) [11]; [35]): 90%; pest or weed control at 1000 g/ha (Solanum nigrum (SOLNI) [12]; [36]): 90%
CCC(Nc1nc(C2CC2)nc(C(=O)OC)c1Cl)c1ccccc1 (stereo not drawn) [Compound 4-194, 5-Chloro-2-cyclopropyl-6-methoxycarbonyl-4-(1-phenylpropyl-amino)pyrimidine] | 10 | 100 | 20 | 90 | 10 | 60 | 10 | 100 | 60 | 100 | 80 | 100 | – | – | – | – | – | – | – | – | –
COC(=O)c1nc(C2CC2)nc(N(C)Cc2ccc(Cl)cc2)c1Cl [Compound 5-63, 5-Chloro-4-[N-(4-chlorophenyl-methyl)-N-methyl-amino]-2-cyclo-propyl-6-methoxy-carbonylpyrimidine] | – | – | – | – | – | – | – | – | – | – | – | – | 10 | 100 | 0 | 70 | 20 | 30 | 30 | 100 | pest or weed control at 1000 g/ha [9, 33]: 40%; pest or weed control at 1000 g/ha [10, 34]: 90%; pest or weed control at 1000 g/ha (Setaria faberi (SETFA) [11]; [35]): 70%; pest or weed control at 1000 g/ha (Solanum nigrum (SOLNI) [12]; [36]): 80%
